Results reported in patent publication US8283481B2, “Inhibitors of a 9-cis epoxycarotenoid dioxygenase” (National Research Council of Canada, priority 2008, dated 2012).

What was measured:
[1] = test system: Arabidopsis thaliana Col-0 seeds; assay: Seed germination assay; type: in vivo
Method: Arabidopsis thaliana Col-0 seeds were sterilized by washing them with 10% sodium hypochlorite and 20% sodium dodecyl sulfate (Sigma) for five minutes and then rinsing four times with sterile water. Seeds were moist chilled for 4 days and then plated on germination medium (0.41% MS salts, 1% sucrose, 0.05% MES and 0.1% Gamborg's vitamins, pH 5.7, 0.7% agar) (Sigma) containing either 0.1, 0.33, 1.0 or 3.33 μM of inhibitor or (+)-ABA 1. As a control, seeds were sewn and germinated on media only without inhibitors or (+)-ABA 1. Germination was recorded over seven days and indexes calculated as described previously.^40

recombinant AtNCED3 = target: T1, recombinant AtNCED3 (Arabidopsis thaliana, UniProt Q9LRR7); assay: Recombinant AtNCED3 in vitro enzyme assay (HPLC, cleavage of 9-cis-neoxanthin); type: biochemical; conditions: for Ki: Dixon plot, competitive inhibition, 0-250 μM inhibitor, 9-cis-neoxanthin at 50 (55), 30 and 10 μM; for relative inhibition of AtNCED3 activity (in words): in vitro enzyme assay, 1 mM concentration (FIG. 5)
T1 construct: glutathione-S-transferase (GST) (C); made in house; host or cells: E. coli BL21(DE3), pRL296 vector
Excerpt: Fresh spinach was macerated under liquid nitrogen and extracted five times with three volumes of methanol/0.1% KOH. Samples were dried using a roto-evaporator, resuspended in acetone and then chilled on ice for one hour. The solvent was subsequently transferred to a new flask, roto-evaporated and resuspended in acetonitrile/acetone (1:1) mixture. The mixture was applied to a gravity flow column containing C-18 silica gel (Sigma) equilibrated in 65% acetonitrile/35% water (solvent C). The column was washed with 49% acetone (solvent D)/51% solvent A and 20 mL of 55% solvent D/45% solvent A while collecting 5 mL fractions. Fractions containing neoxanthin were pooled, dried, and resuspended in 100 μL of methanol. The pooled mixture was separated using an Agilent 1100 series HPLC and a Supelcosil™ LC-18 (25 cm×10 mm, 5 m) (Supelco) column equilibrated with solvent A. The HPLC method consisted of a linear gradient over 30 minutes from 100% solvent A to 100% solvent D with a flow rate of 4 mL/minute at 22° C. and monitored with a PDA detector at 436 nm. The neoxanthin fractions were collected, dried and resuspended in ethanol. Neoxanthin was quantified by determining its OD439 using a PerkinElmer Lambda 35 UV/VIS Spectrometer and applying its extinction coefficient of 2243 (A^1%1cm).^30
AtNCED3 was over-expressed using the pRL296 expression vector (a gift from M. Cygler, BRI, Montreal) in E. coli (BL21)DE3 cells as a glutathione-S-transferase fusion protein and affinity purified using glutathione sepharose 4 fast flow resin (GE Healthcare) as described previously.^35 Essentially, cells were grown to an OD600 of 0.45 at 37° C. and 200 rpm shaking. The culture was induced with 1 mM isopropyl-β-d-thiogalactoside for 16 h at 15° C. and 200 rpm shaking. The cells were pelleted and resuspended in 50 mM Tris-HCl (pH 8.0) 1 mM DTT and 0.5% protease inhibitor cocktail set III (CalBiochem). Cells were lysed using a french press at 20,000 psi and affinity purified as per manufacturer's instructions (GE Healthcare). Protein concentration was determined by the method of Bradford.^36
Enzymatic assays contained 100 mM Bis-Tris (pH 6.7), […], 10 mM ascorbate, 0.05% Triton™ X-100, catalase (1 mg/mL), neoxanthin and inhibitor to a total volume of 5 L of ethanol and 8 g AtNCED3 to a total assay volume of 100 L. Assays were incubated at 22° C. for 20 min. The assays were stopped with the addition of 50 L of 25% Triton™ X-100 and extracted with 150 L of ethyl acetate. All procedures were performed under red-light to minimize photo-induced damage to assay components and products.^6 Fine chemicals and solvents were purchased from Sigma-Aldrich. 75 μL of the assay extract was injected into an Agilent 1100 series HPLC machine equipped with a Supelcosil™ LC-18 (3.3 cm×4.6 mm, 3 m) (Supelco) column pre-equilibrated with 15% acetonitrile (solvent B)/85% water (solvent A). Solvent B increased to 35% over ten minutes, followed by a linear gradient of 65% solvent B to 100% solvent D over 10 minutes. Solvent D was maintained at 100% for 2 minutes and then the column was returned to 15% solvent B for 5 min. The flow rate was maintained at 1.5 mL/min. and monitored with a photodiode array (PDA) detector at 436 and 262 nm.
Evaluation of recombinant AtNCED3 kinetic parameters for Km was accomplished using Michaelis-Menten equation plotted with EnzFitter™ v2.0.18.0 (Biosoft). The Ki for inhibitors was determined using a Dixon plot and concentration ranges of 250, 200, 150, 100, 50 and 0 μM inhibitor in the presence of either 55, 30 or 10 μM 9-cis-neoxanthin 2.^5

AtNCED3 = assay: qRT-PCR transcript level in mannitol stressed plants: AtNCED3; type: in vivo, Arabidopsis thaliana; conditions: 10 and 33 μM, mannitol stress
Method: For each condition to be tested, three hundred wild-type Arabidopsis thaliana Col-0 seeds (LEHLE) were sterilized, vernalized and sewn onto 200 mL of Sunshine Mix #3 (Sun Gro) potting material in an 8×8×4 cm pot. Plants were watered continuously with 25 g/100 mL of 20-20-20 (PlantProdTM) fertilizer and grown at 22° C. with a 16 hour photoperiod for 22 days. Plants were pre-treated with 50 mL/pot of Buffer A (10 mM HEPES pH 6.5) (Sigma)+/-10 or 33 μM test compound for 2 hours. Plants were then soaked with 50 mL/pot of Buffer A containing 0.4 M mannitol (Sigma)+/-10 or 33 μM test compound. Non-treated/non-stressed control plants were simply soaked in Buffer A at the designated time points. Aerial plant tissue was harvested after 6, 12 and 48 hours from the time of initial inhibitor treatment and flash frozen in liquid nitrogen. Half of the tissue samples were lyophilized for metabolite profiling and the other half taken for quantitative reverse-transcription polymerase chain reaction (qRT-PCR) analysis. […] The resulting mRNA was quantified and checked for quality using a Nano-DropTM ND-1000 Spectrophotometer. QuantiTectTM Reverse Transcription Kit (Qiagen) was used to produce cDNA as directed by the manufacturer from 20 ng of starting mRNA. Quantitative PCR was performed on 1 μL of cDNA product using a Bio-Rad iCyclerTM and the QuantiTectTM SYBR Green PCR Kit (Qiagen) coupled with QuantiTectTM Primer Assays (Qiagen) for the gene targets; […]-112304), Rd29B (NM-124609), CYP707A1 (NM-118043), CYP707A3 (NM-123902) and UBQ10 (NM-178968). The pre-validated primer sets are as follows indicated by the GeneGlobe (www1.qiagen.com/GeneGlobe/default.aspx) product name and (catalogue number): At_NCED3-1_SG (QT00769573), At_RD29B-1_SG (QT00840399), At_CYP707A1-1_SG (QT00808339), At_CYP707A3-1_SG (QT00739242), At_UBQ10_va.1_SG (QT01123745). Relative changes in transcript level were normalized using UBQ10 and quantified as previously described.^41

[2] = highest concentration tested (3.33 μM)

T1 sequence (Q9LRR7 41-599): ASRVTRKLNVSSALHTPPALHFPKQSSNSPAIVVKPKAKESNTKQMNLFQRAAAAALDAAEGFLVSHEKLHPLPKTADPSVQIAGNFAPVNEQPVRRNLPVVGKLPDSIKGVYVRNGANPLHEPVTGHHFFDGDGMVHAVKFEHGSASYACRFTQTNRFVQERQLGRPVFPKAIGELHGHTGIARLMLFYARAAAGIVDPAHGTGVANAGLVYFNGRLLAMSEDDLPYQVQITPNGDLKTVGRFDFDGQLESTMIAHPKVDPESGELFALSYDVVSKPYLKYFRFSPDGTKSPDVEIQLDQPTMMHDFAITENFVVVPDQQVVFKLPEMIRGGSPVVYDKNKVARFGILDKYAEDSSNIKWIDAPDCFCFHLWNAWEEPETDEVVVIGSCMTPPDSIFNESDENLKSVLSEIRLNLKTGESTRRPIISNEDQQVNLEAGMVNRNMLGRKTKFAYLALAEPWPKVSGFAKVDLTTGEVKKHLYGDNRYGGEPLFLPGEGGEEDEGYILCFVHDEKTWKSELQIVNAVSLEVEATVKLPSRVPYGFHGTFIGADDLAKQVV

| Compound | reduction of seed germination ([1]; 1 μM in germination medium) [%] | less effect on germination than (+)-ABA 1 ([1]; compared with (+)-ABA 1) | reduction of seed germination [1, 2] [%] | effect on seed germination at low concentrations (in words) [1] | inhibition at 1000 µM (recombinant AtNCED3; 1 mM compound) [%] | Ki (recombinant AtNCED3) [µM] | relative expression level of AtNCED3 in mannitol stressed plants (in words) (AtNCED3) | relative inhibition of AtNCED3 activity (in words) (recombinant AtNCED3) |
| --- | --- | --- | --- | --- | --- | --- | --- | --- |
| CCSCC=C(C)C#CC1(O)C(C)CC(=O)CC1(C)C (racemic) [Compound 13, (4S,5R/4R,5S)-(3′Z)-4-(5′-(Ethylthio)-3′-methylpent-3′-en-1′-ynyl)-4-hydroxy-3,3,5-trimethylcyclohexanone] | 26 | 60-70% | 38 | slight promotion effects | 75 | 93 | decrease the relative expression levels of AtNCED3 | – |
| C/C(C#C[C@@]12O[C@]1(C)C[C@@H](O)CC2(C)C)=C/CSc1ccccc1 [Compound 17, (1R,3S,6R)-(3′Z)-1,5,5-Trimethyl-6-(3′-methyl-5′-(phenylthio)-pent-3′-en-1′-ynyl)-7-oxa-bicyclo[4.1.0]heptan-3-ol] | 26 | – | 51 | slight promotion effects | – | 57 | similar, although not as pronounced effects | completely inhibited |
| C/C(C#C[C@@]12O[C@]1(C)C[C@@H](O)CC2(C)C)=C/CNc1ccccc1 [Compound 18, (1R,3S,6R)-(3′Z)-1,5,5-Trimethyl-6-(3′-methyl-5′-(phenylamino)-pent-3′-en-1-ynyl)-7-oxabicyclo[4.1.0]heptan-3-ol] | 50 | – | 71 | – | – | 87 | similar, although not as pronounced effects | completely inhibited |
